# Experimental data as given in patent US20240400620A1, “Compositions Containing Coronavirus Proteins and Epitopes” (priority 2021, published 2024).
# Read-outs that look alike come from different tables or passages of the source. No end group written: not given here.
# Legend:
# [1] = tested on: activated CD8+ T cells from OC43-infected HLA-B*0702 Ifnar1^−/− mice; assay type: cell-based; conditions: splenocytes
# [2] = tested on: splenocytes or lung leukocytes (IFNγ-producing peptide-specific T cells) from DNA-vaccinated HLA-B*0702 mice; assay: IFNγ-ELISpot, cells of DNA-vaccinated HLA-B*0702 Ifnar1^−/− mice stimulated with SARS-CoV-2 peptides; assay type: cell-based; conditions: 20 h; for IFNγ production (ELISpot) compared with unstimulated control cells: splenocytes, day 21, 10 μg/mL peptide; for IFNγ secretion (ELISpot): lung leukocytes, 10 μg/mL peptide
# [3] = tested on: activated (CD44+ CD62L−) CD8+ T cells from B.1.351-infected HLA-B*0702 Ifnar1^−/− mice; assay type: cell-based
# SARS-CoV-2 B.1.351 = conditions: mouse, in vivo
# [4] = tested on: activated CD4+ T cells from OC43-infected HLA-DRB1*0101 Ifnar1^−/− mice; assay type: cell-based; conditions: for expansion of peptide-reactive IFNγ+ CD4+ T cells: day 8 post-OC43 infection
# [5] = tested on: splenocytes or lung leukocytes from DNA-vaccinated HLA-DRB1*0101 mice; assay type: cell-based; conditions: for stimulation of IFNγ production (ELISpot): splenocytes
# [6] = spleen, day 16 post-OC43 infection
sequence,measurement,setting,value
LPKGIMMNV (misc_feature - ORF1ab; Severe acute respiratory syndrome-related coronavirus) [ORF1ab6834-6844],frequencies of activated IFNγ+ and IFNγ/TNF+ CD8+ T cells,[1]; day 8 post-OC43 infection,increase was significant
TNSPRRARSVA (misc_feature - Spike; Severe acute respiratory syndrome-related coronavirus) [S678-688],IFNγ production (ELISpot) compared with unstimulated control cells,[2],significantly higher levels of IFNγ
same,"frequencies of activated IFNγ+, IFNγ+/TNF+, IFNγ+/CD107a+ and IFNγ+/TNF+/IL-2+ CD8+ T cells compared with unstimulated cultures",[3],no significant expansion
SPRWYFYYLG (misc_feature - Nucleoprotein; Severe acute respiratory syndrome-related coronavirus) [N105-114],IFNγ production (ELISpot) compared with unstimulated control cells,[2],significantly higher levels of IFNγ
APHGVVFL [S1056-1063],IFNγ secretion (ELISpot),[2],significant IFNγ secretion
same,IFNγ production (ELISpot) compared with unstimulated control cells,[2],significantly higher levels of IFNγ
same,"frequencies of activated IFNγ+, IFNγ+/TNF+, IFNγ+/CD107a+ and IFNγ+/TNF+/IL-2+ CD8+ T cells compared with unstimulated cultures",[3],no significant expansion
VPVAIHADQL (misc_feature - Spike; Severe acute respiratory syndrome-related coronavirus) [S620-629],IFNγ production (ELISpot) compared with unstimulated control cells,[2],significantly higher levels of IFNγ
LPKEITVAT (misc_feature - Membrane; Severe acute respiratory syndrome-related coronavirus) [M164-172],"frequencies of activated IFNγ+, IFNγ+/TNF+, IFNγ+/CD107a+ and IFNγ+/TNF+/IL-2+ CD8+ T cells compared with unstimulated cultures",[3],no significant expansion
LSPRWYFYYL [N104-113],"frequencies of N104-113-reactive polyfunctional (IFNγ+/TNF+, IFNγ+/TNF+/IL-2+) and cytotoxic multifunctional (IFNγ+/CD107a+) CD8+ T cells vs mock-immunized",SARS-CoV-2 B.1.351,significantly increased
RCSFYEDFLEYHDVR [ORF8101-115],frequencies of cross-reactive IFNγ+ CD4+ T cells,[4],significantly increased
LYLYALVYFLQSINF [ORF3a106-120],IL-2 production by CD4+ T cells,[4]; day 16 post-OC43 infection,stimulated IL-2 production
QSINFVRIIMRLWLC [ORF3a116-130],expansion of peptide-reactive IFNγ+ CD4+ T cells,[4]; spleen,statistically significant
VLAAVYRINWITGGI (misc_feature - Membrane; Severe acute respiratory syndrome-related coronavirus) [M66-80],expansion of peptide-reactive IFNγ+ CD4+ T cells,[4]; spleen,statistically significant
FPRGQGVPINT (misc_feature - Nucleoprotein; Severe acute respiratory syndrome-related coronavirus) [N66-76],IFNγ secretion (ELISpot),[2],significant IFNγ secretion
same,IFNγ production (ELISpot) compared with unstimulated control cells,[2],significantly higher levels of IFNγ
same,"frequencies of activated IFNγ+, IFNγ+/TNF+, IFNγ+/CD107a+ and IFNγ+/TNF+/IL-2+ CD8+ T cells compared with unstimulated cultures",[3],no significant expansion
TSNFRVQPTESIVRF [S315-329],stimulation of IFNγ response (ELISpot),[5]; lung leukocytes,significantly stimulated a response
same,stimulation of IFNγ production (ELISpot),[5],significant stimulation of IFNγ production
same,IFNγ response (ELISpot),[5]; splenocytes and lung leukocytes,capable of stimulating both splenocytes and lung leukocytes
KFPRGQGVPI (misc_feature - Nucleoprotein; Severe acute respiratory syndrome-related coronavirus) [N65-74],IFNγ secretion (ELISpot),[2],significant IFNγ secretion
same,IFNγ production (ELISpot) compared with unstimulated control cells,[2],significantly higher levels of IFNγ
YYRRATRRIRGGDGK (misc_feature - Nucleoprotein; Severe acute respiratory syndrome-related coronavirus) [N86-100],IL-2 production by CD4+ T cells,[4]; day 16 post-OC43 infection,stimulated IL-2 production
same,expansion of polyfunctional cross-reactive IFNγ+/TNF+ CD4+ T cells,[4]; [6],significantly expanded
FARTRSMWSF (misc_feature - Membrane; Severe acute respiratory syndrome-related coronavirus) [M103-112],"frequencies of activated IFNγ+, IFNγ+/TNF+, IFNγ+/CD107a+ and IFNγ+/TNF+/IL-2+ CD8+ T cells compared with unstimulated cultures",[3],no significant expansion
PKEITVATSRTLSYY (misc_feature - Membrane; Severe acute respiratory syndrome-related coronavirus) [M165-179],stimulation of IFNγ production (ELISpot),[5],significant stimulation of IFNγ production
SPRRARSVA (misc_feature - Spike; Severe acute respiratory syndrome-related coronavirus) [S680-688],IFNγ production (ELISpot) compared with unstimulated control cells,[2],significantly higher levels of IFNγ
LSPRWYFYYLGTGPEAGL (misc_feature - Nucleocapsid; Severe acute respiratory syndrome-related coronavirus) [N104-121],expansion of peptide-reactive IFNγ+ CD8+ T cells,[1]; day 16 post-OC43 infection,9 fold
same,expansion of peptide-reactive IFNγ+/TNF+ CD8+ T cells,[1]; day 16 post-OC43 infection,12 fold
FPRGQGVPIN (misc_feature - Nucleoprotein; Severe acute respiratory syndrome-related coronavirus) [N66-75],IFNγ secretion (ELISpot),[2],significant IFNγ secretion
same,IFNγ production (ELISpot) compared with unstimulated control cells,[2],significantly higher levels of IFNγ
LKFPRGQGVPI (misc_feature - Nucleoprotein; Severe acute respiratory syndrome-related coronavirus) [N64-74],IFNγ secretion (ELISpot),[2],significant IFNγ secretion
same,IFNγ production (ELISpot) compared with unstimulated control cells,[2],significantly higher levels of IFNγ
SPRRARSV (misc_feature - Spike; Severe acute respiratory syndrome-related coronavirus) [S680-687],IFNγ production (ELISpot) compared with unstimulated control cells,[2],significantly higher levels of IFNγ
GSLVVRCSFYEDFLE [ORF896-110],frequencies of cross-reactive IFNγ+ CD4+ T cells,[4]; [6],significantly increased
LNTLVKQLSSNFGAI [S959-973],stimulation of IFNγ production (ELISpot),[5],significant stimulation of IFNγ production
